For one assay, the system named is ECHCO. In words: Example I: postemergence foliar-applied weed control, greenhouse. Type of assay: in vivo, Echinochloa colona (L.) Link (junglerice). The conditions noted are these: for Visual Weed Control Obs: 20 DAA. The essentials: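 Plants grown in loam/sandy loam–calcareous grit soil (80:20) in greenhouse, 14 hr photoperiod, about 29° C. day/26° C. night, treated postemergence at first to fourth true leaf stage. Foliar spray at 187 L/ha with 1.25% (v/v) crop oil concentrate; Compound A dosed on acid equivalent basis, partners on active ingredient basis.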

The test system of another assay is ECHCG. Kind of assay: Example V: field trial, in-water application to transplanted rice, Niigata, Japan. Type of assay: in vivo, Echinochloa crus-galli. The conditions noted are these: early post-emergence; for Visual Weed Control ECHCG (11 DAA) Obs / Visual Weed Control ECHCG Obs: 11 DAA. On the procedure:
Post and pre-emergence field trials were conducted in Niigata, Japan. Trial sites were located in commercially grown fields of transplanted rice (Oryza sativa, variety: Koshihikari) using standard herbicide small plot research methodology. The trial plot size was 2 meters (m)×2 m with 3 replications. The nursery plants were grown in the greenhouse using practical methods and transplanted into the field at the 2.5-leaf stage on May 7, 2012. The row and in-row spaces were 30 cm and 17 cm, respectively. The crop was grown using normal cultural practices for fertilization, water management and maintenance to ensure good growth of the crop and the weeds.
Treatments consisted of the benzyl ester of 4-amino-3-chloro-5-fluoro-6-(4-chloro-2-fluoro-3-methoxyphenyl)pyridine-2-carboxylic acid (Compound A) formulated as an SC (suspension concentrate) and various herbicidal components alone and in combination. Compound A benzyl ester was applied on an active ingredient basis. The herbicidal components were applied on an active ingredient basis and included very long chain fatty acid (VLCFA) synthesis-inhibiting and fatty acid/lipid biosynthesis herbicides pretilachlor formulated as a commercially available granular formulation and benfuresate formulated as a commercially available flowable formulation.
Compound A benzyl ester SC was once diluted in 100 mL water in the 200 mL bottle/plot to achieve the desired rates and applied by water injection. Water injection applications were made by hand as evenly as possible. Pretilachlor was applied by hand, and benfuresate was applied using a pipette to achieve the desired rates. Each compound in mixture treatments was applied separately and successively. Water depth was 3 cm at application. […] Visual weed control was scored on a scale of 0 to 100 percent where 0 corresponds to no injury and 100 corresponds to complete kill.
All treatment results, both for the single product and mixtures, are an average of 3 replicates. The trial sites had naturally occurring populations of weeds. The weed spectrum included, but was not limited to, common barnyardgrass (Echinochloa crus-galli, ECHCG), monochoria (Monochoria vaginalis, MOOVA), Japanese bulrush (Scirpus juncoides, SCPJU), kuroguwai (Eleocharis kuroguwai, ELOKU), common falsepimpernel (Lindernia pyxidaria, LIDPY), Souchet tardif (Cyperus serotinus, CYPSE), small-flower flatsedge (Cyperus difformis, CYPDI), American waterwort (Elatine triandra, ELTTR), and swamp smartweed (Polygonum hydropiperoides, POLHP).
Colby's equation was used to determine the herbicidal effects expected from the mixtures (Colby, S. R. 1967. Calculation of the synergistic and antagonistic response of herbicide combinations. Weeds 15:20-22.).
Some of the compounds tested, application rates employed, plant species tested, and results for submerged (weeds have not yet emerged from the flood water) weed control are given in Table 54. Some of the compounds tested, application rates employed, plant species tested, and results for early postemergence weed control are given in Tables 55-56.

The test system of another assay is DIGSA. Kind of assay: Example I: postemergence foliar-applied weed control, greenhouse. Type of assay: in vivo, Digitaria sanguinalis (L.) Scop. (large crabgrass). The conditions noted are these: 20 DAA. The source says: Seeds or nutlets of the desired test plant species were planted in a soil matrix prepared by mixing a loam or sandy loam soil (e.g., 28.6 percent silt, 18.8 percent clay, and 52.6 percent sand, with a pH of about 5.8 and an organic matter content of about 1.8 percent) and calcareous grit in an 80 to 20 ratio. The soil matrix was contained in plastic pots with a volume of 1 quart and a surface area of 83.6 square centimeters (cm^2). When required to ensure good germination and healthy plants, a fungicide treatment and/or other chemical or physical treatment was applied. The plants were grown for 8-22 days in a greenhouse with an approximate 14 hr photoperiod which was maintained at about 29° C. during the day and 26° C. during the night. Nutrients (Peters Excel® 15-5-15 5-Ca 2-Mg and iron chelate) were applied in the irrigation solution as needed and water was added on a regular basis. Supplemental lighting was provided with overhead metal halide 1000-Watt lamps as necessary. The plants were employed for testing when they reached the first through fourth true leaf stage.
Treatments consisted of the acid or esters of 4-amino-3-chloro-5-fluoro-6-(4-chloro-2-fluoro-3-methoxy-phenyl)pyridine-2-carboxylic acid (Compound A), each formulated as an SC (suspension concentrate), and various herbicidal components alone and in combination. Forms of compound A were applied on an acid equivalent basis.
Other herbicidal components were applied on an active ingredient basis and included very long chain fatty acid (VLCFA) synthesis-inhibiting and fatty acid/lipid synthesis-inhibiting herbicides acetochlor (technical grade material), acetochlor+dichlormid formulated as Topnotch®, pretilachlor (technical grade material), butachlor formulated as Butachlor EC, fentrazamide formulated as Fentrazamide EC, thiobencarb formulated as Bolero® 8EC, cafenstrole formulated as Himeadow® WP or Lapost® Flowable, benfuresate formulated as Full Shot®, dimethenamid-P formulated as Outlook®, indanofan (technical grade material), flufenacet formulated as Define® DF, mefenacet (technical grade material), S-metolachlor formulated as Dual® II Magnum, pethoxamid formulated as Successor® 600, and pyroxasulfone (technical grade material).
Treatment requirements were calculated based upon the rates being tested, the concentration of active ingredient or acid equivalent in the formulation, and a 12 mL application volume at a rate of 187 L/ha.
For treatments comprised of formulated compounds, measured amounts of compounds were placed individually in 25 mL glass vials and diluted in a volume of 1.25% (v/v) Agri-Dex® crop oil concentrated to obtain 12× stock solutions. […] Application solutions were prepared by adding an appropriate amount of each stock solution (e.g., 1 mL) and diluted to the appropriate final concentrations with the addition of 10 mL of an aqueous mixture of 1.25% (v/v) crop oil concentrate so that the final spray solutions contained 1.25+/−0.05% (v/v) crop oil concentrate.
For treatments comprised of technical compounds, weighed amounts can be placed individually in 25 mL glass vials and dissolved in a volume of 97:3 v/v acetone/DMSO to obtain 12× stock solutions. […] Application solutions can be prepared by adding an appropriate amount of each stock solution (e.g., 1 mL) and diluted to the appropriate final concentrations with the addition of 10 mL of an aqueous mixture of 1.5% (v/v) crop oil concentrate so that the final spray solutions contain 1.25% (v/v) crop oil concentrate. When technical materials are used, the concentrated stock solutions can be added to the spray solutions so that the final acetone and DMSO concentrations of the application solutions are […], respectively. […]

Values joined by “and” are separate entries in the source; they are usually repeats but may differ in a detail not shown here. Identical values can stand only once.

As to `CCS(=O)(=O)Oc1ccc2c(c1)C(C)(C)CO2` [Benfuresate, 2,3-dihydro-3,3-dimethyl-5-benzofuranyl ethanesulfonate], the “Visual Weed Control (%) - 22 DAA ECHCO Obs” value is 0% in the assay on ECHCO (75 gai/ha, foliar); 0% in the assay on ECHCO (150 gai/ha, foliar); 0% in the assay with ECHCO (300 gai/ha, foliar). Moreover, the “Visual Weed Control ECHCG (11 DAA) Obs” value in the assay with ECHCG (600 gai/ha) is reported as 6.7%. Further, in the assay on ECHCG (600 gai/ha), the “Visual Weed Control ECHCG (16 DAA) Obs” value is recorded as 20.0%.
Take `CCN(CC)C(=O)n1cnc(S(=O)(=O)c2c(C)cc(C)cc2C)n1` [Cafenstrole, N,N-diethyl-3-[(2,4,6-trimethylphenyl)sulfonyl]-1H-1,2,4-triazole-1-carboxamide]: the “Visual Weed Control Obs” value in the assay on ECHCO (26.25 gai/ha Himeadow WP), in the assay on ECHCO (52.5 gai/ha Himeadow WP) and in the assay on ECHCO (105 gai/ha Himeadow WP) was 10% each time.
As to `COc1c(Cl)ccc(-c2nc(C(=O)O)c(Cl)c(N)c2F)c1F` [Compound A Acid, 4-amino-3-chloro-6-(4-chloro-2-fluoro-3-methoxyphenyl)-5-fluoropyridine-2-carboxylic acid], the “Visual Weed Control Obs” value is 30% in the assay on DIGSA (4.38 gae/ha); 40% with DIGSA (17.5 gae/ha); 65% and 40% and 70% in the assay with ECHCO (4.38 gae/ha); 85% and 60% with ECHCO (8.75 gae/ha). Moreover, the “Visual Weed Control (%) - 22 DAA ECHCO Obs” value worked out at 65% in the assay on ECHCO (5.3 gae/ha, foliar) and 65% in the assay with ECHCO (10.6 gae/ha, foliar).
For `COc1c(Cl)ccc(-c2nc(C(=O)OCc3ccccc3)c(Cl)c(N)c2F)c1F` [Compound A Benzyl Ester, benzyl ester of 4-amino-3-chloro-5-fluoro-6-(4-chloro-2-fluoro-3-methoxy-phenyl)pyridine-2-carboxylic acid], the “Visual Weed Control Obs” value with DIGSA (4.38 gae/ha) was 50% and 40%; in the assay with DIGSA (8.75 gae/ha) it was 60% and 40% and 30%; with DIGSA (17.5 gae/ha), 30%; in the assay on ECHCO (4.38 gae/ha), 60%; in the assay with ECHCO (8.75 gae/ha), 85% and 70%. In addition, the “Visual Weed Control (%) - 22 DAA ECHCO Obs” value in the assay with ECHCO (5.3 gae/ha, foliar) came to 30%; in the assay on ECHCO (10.6 gae/ha, foliar), 55%. In addition, the “Visual Weed Control (%) - 19 DAA ECHCO Obs” value with ECHCO (8 gae/ha, foliar) came out at 65%. The “Visual Weed Control (%) - 20 DAA ECHCO Obs” value with ECHCO (8 gae/ha, foliar) was determined as 40%; in the assay with ECHCO (16 gae/ha, foliar) it was 60%; in the assay with ECHCO (32 gae/ha, foliar), 90%. In addition, the “Visual Weed Control ECHCG (11 DAA) Obs” value with ECHCG (100 gai/ha) amounted to 3.3%. Moreover, the “Visual Weed Control ECHCG Obs” value in the assay on ECHCG (100 gai/ha) came out at 6.7%. For the same compound, the “Visual Weed Control ECHCG (16 DAA) Obs” value with ECHCG (100 gai/ha) is 20.0%.
As for `CCCOCCN(C(=O)CCl)c1c(CC)cccc1CC` [Pretilachlor, 2-chloro-N-(2,6-diethylphenyl)-N-(2-propoxyethyl)acetamide], the “Visual Weed Control Obs” value in the assay on DIGSA (37.5 gai/ha), with DIGSA (75 gai/ha), in the assay with DIGSA (150 gai/ha), in the assay on ECHCO (37.5 gai/ha), with ECHCO (75 gai/ha) and with ECHCO (150 gai/ha) was 0% each time. In the assay with ECHCG (400 gai/ha), the “Visual Weed Control ECHCG Obs” value came to 46.7%.
